Measured values published in patent US11286281B2, “Homodetic cyclic peptides targeting alpha-4-beta-7 integrin” (priority 2017, dated 2022).
“And” between values parts separate entries of the source, which are not always exact repeats. Identical values can stand only once. Numbered stars: 1 amine (or outer) side, 2 acyl side, 3 side chain; on linkers, the order of the positions; unused ones are H or OH. Square brackets hold non-standard residues; d marks the D form. Peptide text beside a SMILES is read from it. X1 = O=C(c1ccc(-c2ccc(N3CCNCC3)cc2)c(CN[*:1])c1)[*:2]

Assays:
integrin α4β1 [1] = target: T1, integrin α4β1 (Homo sapiens, UniProt P05556+P13612); test: Whole blood ligand displacement (receptor occupancy): biotinylated rhVCAM-1 binding to α4β7-negative Th memory cells; assay type: cell-based; settings: read-out: VCAM Competition IC50 (receptor occupancy)
Method: Receptor occupancy (RO) in primary cells was determined by measuring the amount of biotinylated human recombinant MAdCAM-1-FC or human recombinant VCAM-1-Fc bound to selected cell populations using flow cytometry. Human recombinant MAdCAM-1-FC or human recombinant VCAM-1-FC (R&D systems) were biotinylated using commercially available reagents and protocol (Pierce). Whole blood was collected from human donors in sodium heparin tubes. […] Cells were washed twice with 1 mL of 1×DPBS calcium magnesium free(CMF) (ThermoFisher Scientific) and resuspended in 100 μL of DPBS CMF. […] Cells were washed with 1 mL stain buffer-FBS (BD Biosciences) and resuspended in 100 μl stain Buffer-FBS (BD Biosciences) containing 4 mM MnCl2. […] Cells were then washed with 1 mL stain buffer-FBS and resuspended in 100 μl stain buffer-FBS. The cells were incubated in the dark for 30 minutes at room temperature with 1 μl Streptavidin APC (Biolegend 0.2 mg/ml) and a panel of antibodies for the detection of memory T helper a4b7-positive cells subset. And amount of 5.0 μl each of the following antibodies were used; CD45 FITC (BioLegend 200 μg/ml), CD29 APC Cy7 (BioLegend 100 μg/ml), Integrin beta7 PE, (BioLegend concentration 50 μg/mL), CD49d […] (BioLegend 50 μg/mL), CD3 […] […] Cell population were determined using the following markers, CD45+, CD3+, CD4+, CD45RO+, CD49d+, integrin β7, biotinylated ligands.

integrin α4β1 [2] = target: T1, integrin α4β1; test: Integrin α4β1-VCAM human cell adhesion assay (RAMOS cells); assay type: cell-based; design: host or cells: RAMOS human cells; settings: adhesion of RAMOS cells to VCAM-1 coated plates
Method: Integrin α4β1-VCAM Human Cell Adhesion Assay
RAMOS human cells (ATCC CRL-1596) were cultured in RPMI 1640 medium (HyClone SH30027.1) supplemented with 10% FBS (Seradigm) and 1% Penicillin-Streptomycin. A 96-well plate (Costar, 3603) was coated with 100 μl/well of recombinant human VCAM-1 Fc Chimera (R&D systems, 862-VC-100) solution at 0.25 μg/ml in coating buffer (50 mM sodium carbonate, pH 9.6). The plate was incubated overnight at 4° C. and washed twice with […] per well wash buffer (0.05% Tween 20 in PBS), blocked with 250 μl per well blocking buffer (1% non-fat dry milk in PBS), for 1 hour at room temperature. During blocking step, RAMOS cells were resuspended at 10 million cells/ml in PBS containing […] and incubated at 37° C. for 30 min in a 50 ml tube. PBS was added to fill the tube, cells were spun down and resuspended in RPMI 1640 medium to 2 million/mi. Compounds were diluted by serial dilution in binding buffer (1.5 mM CaCl2, 0.5 mM MnCl2, 50 mM Tris-HCl, pH 7.5) to a final volume of 50 μl per well at 2× concentration. […] After last wash, 100 μL of PBS was added to wells and the fluorescence was read (Ex495/Em515) using a plate reader (Tecan Infinite 1000). To calculate the dose response, the fluorescence value of control wells not containing cells was subtracted from each test well.

T1 sequence (P13612 34-1032): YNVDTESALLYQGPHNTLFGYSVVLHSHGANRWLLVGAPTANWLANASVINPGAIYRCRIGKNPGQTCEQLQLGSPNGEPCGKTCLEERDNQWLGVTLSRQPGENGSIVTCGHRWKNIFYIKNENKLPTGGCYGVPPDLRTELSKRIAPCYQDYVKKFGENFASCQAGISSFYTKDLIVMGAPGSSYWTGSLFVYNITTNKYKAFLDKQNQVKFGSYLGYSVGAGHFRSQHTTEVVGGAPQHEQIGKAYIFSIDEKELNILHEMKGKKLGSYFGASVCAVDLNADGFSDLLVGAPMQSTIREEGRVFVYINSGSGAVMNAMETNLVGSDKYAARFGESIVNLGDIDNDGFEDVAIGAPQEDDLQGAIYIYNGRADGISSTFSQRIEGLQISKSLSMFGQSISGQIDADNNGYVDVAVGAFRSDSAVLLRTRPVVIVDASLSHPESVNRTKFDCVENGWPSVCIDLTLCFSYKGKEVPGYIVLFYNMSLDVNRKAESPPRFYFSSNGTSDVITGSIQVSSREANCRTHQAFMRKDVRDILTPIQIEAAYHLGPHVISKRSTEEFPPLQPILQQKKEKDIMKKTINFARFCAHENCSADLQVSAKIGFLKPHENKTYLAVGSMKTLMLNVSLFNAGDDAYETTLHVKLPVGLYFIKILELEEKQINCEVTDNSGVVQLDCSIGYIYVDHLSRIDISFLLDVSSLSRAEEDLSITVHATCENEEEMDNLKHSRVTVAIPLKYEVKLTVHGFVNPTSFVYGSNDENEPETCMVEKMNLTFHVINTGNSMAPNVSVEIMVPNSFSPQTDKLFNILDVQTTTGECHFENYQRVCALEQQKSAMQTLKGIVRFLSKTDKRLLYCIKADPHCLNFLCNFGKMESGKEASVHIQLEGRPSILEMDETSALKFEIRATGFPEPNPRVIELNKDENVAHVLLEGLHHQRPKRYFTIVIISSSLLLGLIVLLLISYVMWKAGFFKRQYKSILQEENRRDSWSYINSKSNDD
T1 sequence (P05556 21-798): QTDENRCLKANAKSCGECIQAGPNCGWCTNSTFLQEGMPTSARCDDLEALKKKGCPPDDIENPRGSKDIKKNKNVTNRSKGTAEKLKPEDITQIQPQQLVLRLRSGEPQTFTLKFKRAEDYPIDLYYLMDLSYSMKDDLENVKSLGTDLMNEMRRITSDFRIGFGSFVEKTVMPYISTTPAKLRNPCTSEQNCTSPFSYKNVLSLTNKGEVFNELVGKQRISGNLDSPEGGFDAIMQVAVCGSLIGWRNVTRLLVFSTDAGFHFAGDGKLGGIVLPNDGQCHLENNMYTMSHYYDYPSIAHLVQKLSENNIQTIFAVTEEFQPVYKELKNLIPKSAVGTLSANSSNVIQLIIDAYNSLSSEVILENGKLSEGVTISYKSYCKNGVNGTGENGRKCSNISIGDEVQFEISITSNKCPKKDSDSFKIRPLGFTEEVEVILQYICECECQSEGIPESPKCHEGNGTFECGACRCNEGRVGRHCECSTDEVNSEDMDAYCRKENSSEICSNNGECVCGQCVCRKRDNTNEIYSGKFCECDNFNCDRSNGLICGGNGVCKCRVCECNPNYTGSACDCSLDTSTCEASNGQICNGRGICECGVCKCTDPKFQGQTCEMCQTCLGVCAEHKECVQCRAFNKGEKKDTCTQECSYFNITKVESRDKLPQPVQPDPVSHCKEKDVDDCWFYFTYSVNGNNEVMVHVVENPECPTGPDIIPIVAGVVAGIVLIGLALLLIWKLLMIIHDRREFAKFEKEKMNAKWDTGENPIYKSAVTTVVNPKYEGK

Row | Structure (SMILES) | IC50 (integrin α4β1 [1]) | IC50 (integrin α4β1 [2])
1 | CC(C)C[C@@H]1NC(=O)c2ccc(-c3ccc(N4CCN(Cc5cccc(CN6CCN(c7ccc(-c8ccc9cc8CNC(=O)[C@@H]8CCCN8C(=O)[C@H](C)NC(=O)[C@H]([C@@H](C)O)NC(=O)[C@H](CC(=O)O)NC(=O)[C@H](CC(C)C)NC9=O)cc7)CC6)c5)CC4)cc3)c(c2)CNC(=O)[C@@H]2CCCN2C(=O)[C@H](C)NC(=O)[C@H]([C@@H](C)O)NC(=O)[C@H](CC(=O)O)NC1=O [Compound 18] | 123 nM | 184 nM
2 | CC(C)C[C@@H]1NC(=O)c2ccc(-c3ccc(N4CCNCC4)cc3)c(c2)CNC(=O)[C@@H]2CCCN2C(=O)[C@H](C)NC(=O)[C@H]([C@@H](C)O)NC(=O)[C@H](CC(=O)O)NC1=O [Compound 8] (cyclo(P[X1]LDTA)) | > 4000 nM | ~451 nM and 451 nM
